Data from ChEMBL document CHEMBL1201862, “PubChem BioAssay data set” (2004).
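Test compounds were applied to cells in 96-well plates for 48 hours at 5 doses. At the GI50, growth is halved.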 Activity calls are given as the source filed them. Cut-off read from the data, not from the text of the source: active = GI50 up to about 1.1 µM and inactive = higher.

Legend:
Assay in all cases: DTP human tumour cell line panel, 48 h
786-0 = tested on: 786-0
A498 = tested on: A498
BT-549 = tested on: BT-549
HCT-116 = tested on: HCT-116
HL-60 = tested on: HL-60
HT-29 = tested on: HT-29
LOX IMVI = tested on: LOX IMVI
M14 = tested on: M14
MDA-MB-231 = tested on: MDA-MB-231
Malme-3M = tested on: Malme-3M
NCI-H522 = tested on: NCI-H522
NCI/ADR-RES = tested on: NCI/ADR-RES
OVCAR-3 = tested on: OVCAR-3
SF-295 = tested on: SF-295
SK-MEL-28 = tested on: SK-MEL-28
SK-MEL-2 = tested on: SK-MEL-2
SNB-19 = tested on: SNB-19
TK-10 = tested on: TK-10
UACC-257 = tested on: UACC-257
HCC 2998 = tested on: HCC 2998

Compound | GI50 (786-0) | GI50 (A498) | GI50 (BT-549) | GI50 (HCT-116) | GI50 (HL-60) | GI50 (HT-29) | GI50 (LOX IMVI) | GI50 (M14) | GI50 (MDA-MB-231) | GI50 (Malme-3M) | GI50 (NCI-H522) | GI50 (NCI/ADR-RES) | GI50 (OVCAR-3) | GI50 (SF-295) | GI50 (SK-MEL-28) | GI50 (SK-MEL-2) | GI50 (SNB-19) | GI50 (TK-10) | GI50 (UACC-257) | GI50 (HCC 2998)
CC(=O)Oc1cc(S(=O)(=O)Nc2n[nH]c(Nc3ccc(C)cc3)n2)c(S)cc1Cl | > 100 µM (inactive) | > 100 µM (inactive) | > 100 µM (inactive) | > 100 µM (inactive) | 45.7 µM (inactive) | > 100 µM (inactive) | > 100 µM (inactive) | > 100 µM (inactive) | 51.1 µM (inactive) | > 100 µM (inactive) | 92 µM (inactive) | > 100 µM (inactive) | > 100 µM (inactive) | > 100 µM (inactive) | > 100 µM (inactive) | > 100 µM (inactive) | > 100 µM (inactive) | > 100 µM (inactive) | > 100 µM (inactive) | 
O=C(CCN1CCOCC1)Nc1ccc(F)cc1F | > 100 µM (inactive) | > 100 µM (inactive) | > 100 µM (inactive) | > 100 µM (inactive) | > 100 µM (inactive) | > 100 µM (inactive) | > 100 µM (inactive) | > 100 µM (inactive) | > 100 µM (inactive) | > 100 µM (inactive) | > 100 µM (inactive) | > 100 µM (inactive) | > 100 µM (inactive) | > 100 µM (inactive) | > 100 µM (inactive) | > 100 µM (inactive) | > 100 µM (inactive) | > 100 µM (inactive) | > 100 µM (inactive) | 
Cc1ccc(-c2nc3cc([N+](=O)[O-])ccc3[nH]2)cc1 | > 100 µM (inactive) |  | > 100 µM (inactive) | 89.9 µM (inactive) | 45.3 µM (inactive) | 39.2 µM (inactive) | 80.5 µM (inactive) | > 100 µM (inactive) | > 100 µM (inactive) | > 100 µM (inactive) | 41.7 µM (inactive) | 40.8 µM (inactive) | 67.5 µM (inactive) | 63 µM (inactive) | > 100 µM (inactive) | > 100 µM (inactive) | > 100 µM (inactive) | > 100 µM (inactive) | 80.4 µM (inactive) | 43.4 µM (inactive)
O=C(NNC(=O)c1ccccc1SSc1ccccc1C(=O)NNC(=O)c1ccccc1S)c1ccccc1S | 11.4 µM (inactive) |  | 13.5 µM (inactive) | 7.18 µM (inactive) | 1.73 µM (inactive) | 30.3 µM (inactive) | 11.9 µM (inactive) | 17.7 µM (inactive) | 19.6 µM (inactive) | 21.6 µM (inactive) | 0.49 µM (active) | 20 µM (inactive) | 31 µM (inactive) | 10.6 µM (inactive) | 24.3 µM (inactive) | 23.7 µM (inactive) | 26.2 µM (inactive) | 51.8 µM (inactive) | 27.7 µM (inactive) | 48.2 µM (inactive)
CN(C)c1ccc2nc3c(C(=O)O)cc(O)c(O)c3[o+]c2c1 | 29.1 µM (inactive) | > 100 µM (inactive) | 20.9 µM (inactive) | 24.9 µM (inactive) | 22.3 µM (inactive) | 38.5 µM (inactive) | 33.1 µM (inactive) | 21.7 µM (inactive) | 33 µM (inactive) | 6.49 µM (inactive) | 5.48 µM (inactive) | 28.7 µM (inactive) | 13.3 µM (inactive) | > 100 µM (inactive) | 43 µM (inactive) | 16.3 µM (inactive) | 28.7 µM (inactive) | 21.8 µM (inactive) | 14.8 µM (inactive) | 
Cc1ccc(S(=O)(=O)Oc2nc3nc4ccccc4nc3nc2OS(=O)(=O)c2ccc(C)cc2)cc1 | > 100 µM (inactive) | > 100 µM (inactive) | > 100 µM (inactive) | > 100 µM (inactive) | > 10 µM (inactive) | > 100 µM (inactive) |  | > 100 µM (inactive) | > 100 µM (inactive) | > 100 µM (inactive) | > 100 µM (inactive) | > 100 µM (inactive) | > 100 µM (inactive) | > 100 µM (inactive) | > 100 µM (inactive) | > 100 µM (inactive) | > 100 µM (inactive) | > 100 µM (inactive) | > 100 µM (inactive) | > 100 µM (inactive)
CCCC(=O)NC(C(=O)OCC)(N1CCOCC1)C(F)(F)F (stereo unspecified) | > 100 µM (inactive) |  | > 100 µM (inactive) | > 100 µM (inactive) | > 100 µM (inactive) | > 100 µM (inactive) | > 100 µM (inactive) | > 100 µM (inactive) | > 100 µM (inactive) | > 100 µM (inactive) | > 100 µM (inactive) | > 100 µM (inactive) | > 100 µM (inactive) | > 100 µM (inactive) | > 100 µM (inactive) | > 100 µM (inactive) | > 100 µM (inactive) | > 100 µM (inactive) | > 100 µM (inactive) | > 100 µM (inactive)
CO/C(=N\N=C\c1ccccc1F)c1ccncc1 | > 10 µM (inactive) |  | > 10 µM (inactive) | > 10 µM (inactive) | > 10 µM (inactive) | > 10 µM (inactive) | > 10 µM (inactive) | > 10 µM (inactive) | > 10 µM (inactive) | > 10 µM (inactive) | > 10 µM (inactive) | > 10 µM (inactive) | > 10 µM (inactive) | > 10 µM (inactive) |  | > 10 µM (inactive) | > 10 µM (inactive) | > 10 µM (inactive) | > 10 µM (inactive) | > 10 µM (inactive)
O=c1oc2ccccc2cc1/C=N/N1C(=S)N(c2ccccc2)C(=N\c2ccccc2)/C1=N/c1ccccc1 | > 100 µM (inactive) |  | > 100 µM (inactive) | 41.4 µM (inactive) |  | > 10 µM (inactive) |  | > 100 µM (inactive) | > 100 µM (inactive) | > 100 µM (inactive) | 34 µM (inactive) | > 100 µM (inactive) | > 100 µM (inactive) | 28.1 µM (inactive) | > 100 µM (inactive) | > 100 µM (inactive) | > 100 µM (inactive) | > 100 µM (inactive) | 96.8 µM (inactive) | > 100 µM (inactive)
CCOC(=O)Nc1sc2c(c1C#N)CC(C)CC2 (stereo unspecified) | 10.1 µM (inactive) |  | 19.7 µM (inactive) | 4 µM (inactive) | 0.1 µM (active) | 3.06 µM (inactive) | 10.2 µM (inactive) | 2.66 µM (inactive) | 5.56 µM (inactive) | 8.55 µM (inactive) | 1.25 µM (inactive) | 1.96 µM (inactive) | 5.87 µM (inactive) | 11.6 µM (inactive) | 17.1 µM (inactive) | 2.16 µM (inactive) | 3.16 µM (inactive) | 6.62 µM (inactive) | 11 µM (inactive) | 2.24 µM (inactive)
CCOC(=O)c1ccc2nc(NC(=O)COC(=O)CSc3nc(C)cc(C)n3)sc2c1 | 97.1 µM (inactive) | 34 µM (inactive) | 31.2 µM (inactive) | 77.3 µM (inactive) | 15.8 µM (inactive) | 66.2 µM (inactive) | 48 µM (inactive) | 41.6 µM (inactive) | 66.4 µM (inactive) | > 100 µM (inactive) | 64 µM (inactive) | 48.4 µM (inactive) | 25.3 µM (inactive) | 36.6 µM (inactive) | 97.3 µM (inactive) | > 100 µM (inactive) | 37.8 µM (inactive) | 29.3 µM (inactive) | > 100 µM (inactive) | 
COc1ccc(C2=NNC(=O)c3ccccc3N2c2nc(-c3cccs3)nc3ccc(Br)cc23)cc1 | 25.8 µM (inactive) | > 100 µM (inactive) | 37.5 µM (inactive) | 69.5 µM (inactive) | > 100 µM (inactive) | > 100 µM (inactive) | 27.1 µM (inactive) | 37.4 µM (inactive) | 43.2 µM (inactive) | 25.2 µM (inactive) | 64.9 µM (inactive) | 19.1 µM (inactive) | 23 µM (inactive) | 20.6 µM (inactive) | > 100 µM (inactive) | 78.9 µM (inactive) | 30.1 µM (inactive) | 28.2 µM (inactive) | 51.9 µM (inactive) | 
O=S(=O)(O)c1ccc2c(/N=N/c3cccc4ccccc34)c(O)ccc2c1 | > 100 µM (inactive) | > 100 µM (inactive) | > 100 µM (inactive) | > 100 µM (inactive) | > 100 µM (inactive) | > 100 µM (inactive) | > 100 µM (inactive) | > 100 µM (inactive) | > 100 µM (inactive) | > 100 µM (inactive) | > 100 µM (inactive) | > 100 µM (inactive) | > 100 µM (inactive) | 39.1 µM (inactive) | > 100 µM (inactive) | > 100 µM (inactive) | 74.6 µM (inactive) | > 100 µM (inactive) | > 100 µM (inactive) | 
Brc1cccc(/N=N/N2CCCC2)c1 | > 100 µM (inactive) | > 100 µM (inactive) | 68.9 µM (inactive) | 92.3 µM (inactive) | 16.4 µM (inactive) |  | 77.1 µM (inactive) | > 100 µM (inactive) | > 100 µM (inactive) |  | 68.9 µM (inactive) | 81.5 µM (inactive) | > 100 µM (inactive) | 97.5 µM (inactive) |  | > 100 µM (inactive) | > 100 µM (inactive) | > 100 µM (inactive) | > 100 µM (inactive) | 
C=CCN1C[C@@H](C)N([C@@H](c2ccc(C(=O)N(CC)CC)cc2)c2cccc(OC)c2)C[C@@H]1C | > 100 µM (inactive) | > 100 µM (inactive) | > 100 µM (inactive) | > 100 µM (inactive) |  | > 100 µM (inactive) | > 100 µM (inactive) | > 100 µM (inactive) | > 100 µM (inactive) | > 100 µM (inactive) | > 100 µM (inactive) | > 100 µM (inactive) | > 100 µM (inactive) | > 100 µM (inactive) | > 100 µM (inactive) | > 100 µM (inactive) | > 100 µM (inactive) |  |  | 
